# Assay results published in patent publication US20260231939A1, “ARTHROPOD CONTROL COMPOSITIONS” (Firmenich SA, priority 2022, published 2026).
# Where two headings read alike, the source gives them in different places.
# What was measured:
# Aedes aegypti = test: Warm Body assay, mosquito landings on the baited warm body; assay type: in vivo; details: for pest or weed control at 16 µg/mL / pest or weed control at 400 µg/mL / pest or weed control at 10000 µg/mL: Aedes aegypti, read-out: Percentage of repellence of mosquitoes landing on the warm body; for repellence efficacy compared with the saturated counterpart: Warm Body assay, paired t-test where given
# Procedure: (§1) The controlling effect according to the present invention was assessed using an adapted Warm Body assay as defined in Kröber T, Kessler S, Frei J, Bourquin M, Guerin P M. 2010. J Am Mosq Control Assoc. 26:381-386. In this in-vitro assay the number of mosquito landing on a warm body, simulating an attractive host treated with the tested stimuli, was measured in order to assess the repellence effect.
# The published protocol has been adapted as the switch from Anopheles gambiae to Ae. aegypti led to a decrease of mosquitoes placed in the tested cage due to the size difference (i.e. 30 mosquitoes instead of 50) and to an increase of lighting since Ae. aegypti is a diurnal mosquitoes (i.e. 150 lux instead of 4 lux).
# (§2) On the sandblasted glass Petri dish covering the warm body (28.3 cm^2), 100 μL of the compounds diluted at different concentrations in ethanol was applied. The number of mosquito landing on the warm body was counted for each stimulus. Number of landings on pure ethanol (solvent) control treatment was used to normalize the data and calculate the percentage of repellence.
# Anopheles gambiae = test: as above; assay type: in vivo; details: for repellence efficacy compared with the saturated counterpart: Warm Body assay, paired t-test, FIG. 4
# Procedure: Anopheles gambiae is also a model organism as it is anthropophilic and transmits malaria.
# as §1, with “effect. […]” for “effect.”
# as §2
# Ae. aegypti = test: Arm-in-cage test on human volunteers; assay type: in vivo, Aedes aegypti; details: for repellence efficacy compared with saturated 6-pentyloxan-2-one: Arm-in-Cage, paired t-test, FIG. 5; for repellence efficacy compared with saturated 6-pentyloxan-2-one / Arm-in-cage repellence: 20% in ethanol
# Procedure: (§3) The Arm in the box method was adapted from the WHO Guidelines for efficacy testing of mosquito repellents for human skin (WHO/CDS/NTD/WHOPES/2009.4) and/or based on EU biocide testing guidelines (Guidance on the Biocidal Products Regulation. Vol. II Efficacy—Assessment and Evaluation (Parts B+C), v. 4.0. December 2021). The readiness of 200 hungry female mosquitoes Ae. aegypti or 50 An. gambiae to probe is assessed by inserting the untreated arm of human volunteers into the cage (40×40×40 cm) for 30 seconds (negative control) in order to determine probing activity. Then, the product is applied onto the skin of the forearm of the human volunteer (1 mL per 600 cm^2) and after 5 minutes (Ae. aegypti) or 30 minutes (An. gambiae), this arm is inserted into the cage and exposed for 3 minutes. The assay take place in temperature (27±2° C.) and humidity (80±10% RH) regulated room on three different human volunteers.
# An. gambiae = test: Arm-in-cage test on human volunteers; assay type: in vivo, Anopheles gambiae; details: for time during which protection is 100%, i.e. no mosquito landing / Arm-in-cage repellence: 20% in ethanol; for time during which mosquito protection / repellence is >90%: 20% solution in ethanol; for repellent effect: dilution of 5%
# Procedure: as §3
# Ixodes ricinus = test: Warm Plate Assay for ticks; details: for lower dose at which 100% of repellent efficacy is already reached: in vivo
# [1] = unsaturated δ-lactones at 20%, 30 min
# [2] = unsaturated δ-lactones at 20%, 1 h
# [3] = unsaturated δ-lactones at 20%, 2 h
# [4] = unsaturated δ-lactones at 20%, 3 h
# [5] = unsaturated δ-lactones at 20%, 4 h
# [6] = unsaturated δ-lactones at 20%, 5 h
# [7] = unsaturated δ-lactones at 20%, 6 h
# [8] = unsaturated δ-lactones at 20%, 7 h
# [9] = more complex lactones (types A, B, C), 0.016 mg/mL
# [10] = more complex lactones (types A, B, C), 0.4 mg/mL
# [11] = more complex lactones (types A, B, C), 10 mg/mL
# [12] = γ-lactones, 0.016 mg/mL in ethanol
# [13] = γ-lactones, 0.4 mg/mL in ethanol
# [14] = γ-lactones, 10 mg/mL in ethanol
smiles,measurement,setting,value
CC=CCCC1CCCC(=O)O1 (stereo not shown) [6-pent-3-enyloxan-2-one],pest or weed control at 16 µg/mL,"Aedes aegypti; δ-lactones, 0.016 mg/mL",20%
same,pest or weed control at 400 µg/mL,"Aedes aegypti; δ-lactones, 0.4 mg/mL",98%
same,pest or weed control at 10000 µg/mL,"Aedes aegypti; δ-lactones, 10 mg/mL",100%
same,repellence efficacy compared with the saturated counterpart,Aedes aegypti,significantly more efficient
same,repellence efficacy compared with the saturated counterpart,Anopheles gambiae,significantly more efficient
same,repellence efficacy compared with saturated 6-pentyloxan-2-one,Ae. aegypti,more efficient
same,"time during which protection is 100%, i.e. no mosquito landing",An. gambiae,3 h
same,time during which mosquito protection / repellence is >90%,An. gambiae,8 h
same,"Arm-in-cage repellence, mean of three volunteers",An. gambiae; [1],100% ±
same,"Arm-in-cage repellence, mean of three volunteers",An. gambiae; [2],100% ±
same,"Arm-in-cage repellence, mean of three volunteers",An. gambiae; [3],100% ±
same,"Arm-in-cage repellence, mean of three volunteers",An. gambiae; [4],100% ±
same,"Arm-in-cage repellence, mean of three volunteers",An. gambiae; [5],99.0% ±
same,"Arm-in-cage repellence, mean of three volunteers",An. gambiae; [6],98.4% ±
same,"Arm-in-cage repellence, mean of three volunteers",An. gambiae; [7],98.3% ±
same,"Arm-in-cage repellence, mean of three volunteers",An. gambiae; [8],94.9% ±
same,"Arm-in-cage repellence, mean of three volunteers","An. gambiae; unsaturated δ-lactones at 20%, 8 h",94.7% ±
same,Percentage of repellence of ticks on the warm plate,Ixodes ricinus; 0.40 mg/mL,83%
same,Percentage of repellence of ticks on the warm plate,Ixodes ricinus; 2 mg/mL,100%
same,Percentage of repellence of ticks on the warm plate,Ixodes ricinus; 10 mg/mL,100%
same,lower dose at which 100% of repellent efficacy is already reached,Ixodes ricinus,0.2%
"CC1CCC2C(C1)OC(=O)C2C (stereo not shown) [3,6-dimethyl-3a,4,5,6,7,7a-hexahydro-3H-1-benzofuran-2-one]",pest or weed control at 16 µg/mL,Aedes aegypti; [9],0%
same,pest or weed control at 400 µg/mL,Aedes aegypti; [10],90%
same,pest or weed control at 10000 µg/mL,Aedes aegypti; [11],98%
same,mosquitoes repelled for at least 1 h,Ae. aegypti; at 20%,> 95%
same,"Arm-in-cage repellence, mean of three volunteers","Ae. aegypti; at 20%, 30 min",100% ±
same,"Arm-in-cage repellence, mean of three volunteers","Ae. aegypti; at 20%, 1 h",99.93% ±
same,"Arm-in-cage repellence, mean of three volunteers","Ae. aegypti; at 20%, 2 h",92.21% ±
same,"Arm-in-cage repellence, mean of three volunteers","Ae. aegypti; at 20%, 3 h",86.52% ±
same,"Arm-in-cage repellence, mean of three volunteers","Ae. aegypti; at 20%, 4 h",66.02% ±
same,mosquitoes repelled for at least 1 h,An. gambiae; at 20%,> 95%
same,"Arm-in-cage repellence, mean of three volunteers","An. gambiae; at 20%, 30 min",100% ±
same,"Arm-in-cage repellence, mean of three volunteers","An. gambiae; at 20%, 1 h",93.7% ±
same,"Arm-in-cage repellence, mean of three volunteers","An. gambiae; at 20%, 2 h",67.05% ±
C=CCCCCC1CCC(=O)O1 (stereo not shown) [5-hex-5-enyloxolan-2-one],pest or weed control at 16 µg/mL,Aedes aegypti; [12],14%
same,pest or weed control at 400 µg/mL,Aedes aegypti; [13],89%
same,pest or weed control at 10000 µg/mL,Aedes aegypti; [14],100%
same,Percentage of repellence of mosquitoes landing on the warm body,Anopheles gambiae; 0.08 mg/mL,65%
same,Percentage of repellence of mosquitoes landing on the warm body,Anopheles gambiae; 0.178 mg/mL,72%
same,Percentage of repellence of mosquitoes landing on the warm body,Anopheles gambiae; 0.267 mg/mL,73%
same,Percentage of repellence of mosquitoes landing on the warm body,Anopheles gambiae; 0.598 mg/mL,88%
same,Percentage of repellence of mosquitoes landing on the warm body,Anopheles gambiae; 0.89 mg/mL,98%
same,Percentage of repellence of mosquitoes landing on the warm body,Anopheles gambiae; 2 mg/mL,100%
same,Percentage of repellence of mosquitoes landing on the warm body,Anopheles gambiae; 4.47 mg/mL,100%
same,Percentage of repellence of mosquitoes landing on the warm body,Anopheles gambiae; 10 mg/mL,100%
CCC=CCCC1CCC(=O)O1 (stereo not shown) [5-hex-3-enyloxolan-2-one],pest or weed control at 16 µg/mL,Aedes aegypti; [12],0%
same,pest or weed control at 400 µg/mL,Aedes aegypti; [13],81%
same,pest or weed control at 10000 µg/mL,Aedes aegypti; [14],95%
same,repellence efficacy compared with the saturated counterpart,Aedes aegypti,significantly higher
same,Percentage of repellence of mosquitoes landing on the warm body,Anopheles gambiae; 0.08 mg/mL,12%
same,Percentage of repellence of mosquitoes landing on the warm body,Anopheles gambiae; 0.178 mg/mL,38%
same,Percentage of repellence of mosquitoes landing on the warm body,Anopheles gambiae; 0.267 mg/mL,95%
same,Percentage of repellence of mosquitoes landing on the warm body,Anopheles gambiae; 0.598 mg/mL,93%
same,Percentage of repellence of mosquitoes landing on the warm body,Anopheles gambiae; 0.89 mg/mL,100%
same,Percentage of repellence of mosquitoes landing on the warm body,Anopheles gambiae; 2 mg/mL,100%
same,Percentage of repellence of mosquitoes landing on the warm body,Anopheles gambiae; 4.47 mg/mL,100%
same,Percentage of repellence of mosquitoes landing on the warm body,Anopheles gambiae; 10 mg/mL,100%
same,Arm-in-cage repellence,Ae. aegypti; 5 min post application,98.5% ±
same,Arm-in-cage repellence,Ae. aegypti; 1 h post application,97.0% ±
same,Arm-in-cage repellence,Ae. aegypti; 2 h post application,93.0% ±
same,Arm-in-cage repellence,Ae. aegypti; 3 h post application,88.3% ±
same,Arm-in-cage repellence,Ae. aegypti; 4 h post application,79.5% ±
same,time during which mosquito protection is >90%,Ae. aegypti; 20% solution in ethanol,2 h
same,"time during which protection is 100%, i.e. no mosquito landing",An. gambiae,4 h
same,Arm-in-cage repellence,An. gambiae; 30 min post application,100% ±
same,Arm-in-cage repellence,An. gambiae; 1 h post application,100% ±
same,Arm-in-cage repellence,An. gambiae; 2 h post application,100% ±
same,Arm-in-cage repellence,An. gambiae; 3 h post application,100% ±
same,Arm-in-cage repellence,An. gambiae; 4 h post application,100% ±
same,Arm-in-cage repellence,An. gambiae; 5 h post application,97.85% ±
same,Arm-in-cage repellence,An. gambiae; 6 h post application,80.07% ±
same,time during which mosquito protection / repellence is >90%,An. gambiae,5 h
same,Percentage of repellence of ticks on the warm plate,Ixodes ricinus; 0.40 mg/mL,17%
same,Percentage of repellence of ticks on the warm plate,Ixodes ricinus; 10 mg/mL,100%
CCC=CCC1CCCC(=O)O1 (stereo not shown) [6-pent-2-enyloxan-2-one],repellence efficacy compared with the saturated counterpart,Aedes aegypti,significantly more efficient
same,repellence efficacy compared with the saturated counterpart,Anopheles gambiae,significantly more efficient
same,repellence efficacy compared with saturated 6-pentyloxan-2-one,Ae. aegypti,more efficient
same,"time during which protection is 100%, i.e. no mosquito landing",An. gambiae,4 h
same,time during which mosquito protection / repellence is >90%,An. gambiae,6 h
same,repellent effect,An. gambiae; 30 min after application,100%
same,repellent effect,An. gambiae; 1 h after application,99.2%
same,repellent effect,An. gambiae; 2 h after application,67.2%
same,"Arm-in-cage repellence, mean of three volunteers",An. gambiae; [1],100% ±
same,"Arm-in-cage repellence, mean of three volunteers",An. gambiae; [2],100% ±
same,"Arm-in-cage repellence, mean of three volunteers",An. gambiae; [3],100% ±
same,"Arm-in-cage repellence, mean of three volunteers",An. gambiae; [4],100% ±
same,"Arm-in-cage repellence, mean of three volunteers",An. gambiae; [5],100% ±
same,"Arm-in-cage repellence, mean of three volunteers",An. gambiae; [6],99.2% ±
same,"Arm-in-cage repellence, mean of three volunteers",An. gambiae; [7],92.3% ±
same,"Arm-in-cage repellence, mean of three volunteers",An. gambiae; [8],87.8% ±
same,Percentage of repellence of ticks on the warm plate,Ixodes ricinus; 0.08 mg/mL,33%
same,Percentage of repellence of ticks on the warm plate,Ixodes ricinus; 0.18 mg/mL,42%
same,Percentage of repellence of ticks on the warm plate,Ixodes ricinus; 0.40 mg/mL,75%
same,Percentage of repellence of ticks on the warm plate,Ixodes ricinus; 0.89 mg/mL,100%
same,Percentage of repellence of ticks on the warm plate,Ixodes ricinus; 2 mg/mL,100%
same,Percentage of repellence of ticks on the warm plate,Ixodes ricinus; 10 mg/mL,100%
same,lower dose at which 100% of repellent efficacy is already reached,Ixodes ricinus,0.089%
CCCCCC1CCCC(=O)O1 (stereo not shown) [6-pentyloxan-2-one],pest or weed control at 16 µg/mL,"Aedes aegypti; δ-lactones, 0.016 mg/mL",0%
same,pest or weed control at 400 µg/mL,"Aedes aegypti; δ-lactones, 0.4 mg/mL",91%
same,pest or weed control at 10000 µg/mL,"Aedes aegypti; δ-lactones, 10 mg/mL",98%
CCCC1CCC(=O)O1 (stereo not shown) [5-propyloxolan-2-one],pest or weed control at 16 µg/mL,Aedes aegypti; [12],28%
same,pest or weed control at 400 µg/mL,Aedes aegypti; [13],50%
same,pest or weed control at 10000 µg/mL,Aedes aegypti; [14],100%
O=C1CCC2(CCCCC2)O1 [1-oxaspiro[4.5]decan-2-one],pest or weed control at 16 µg/mL,Aedes aegypti; [9],54%
same,pest or weed control at 400 µg/mL,Aedes aegypti; [10],79%
same,pest or weed control at 10000 µg/mL,Aedes aegypti; [11],100%
